According to patent EP4007561B1, “PREVENTION AND REDUCTION OF CORNIFICATION DISORDERS AND RELATED COSMETIC AGENTS” (Merck Patent GmbH, priority 2019, dated 2021):
“And” between values parts separate entries of the source, which are not always exact repeats. Equal values may be shown once.

How the values were obtained:
Assay type in all cases: cell-based, human
[1] = test system: skin explants; test: Protein oxidation (carbonylation) by differential in-gel electrophoresis proteomics, unidentified spots and overall spot pattern; conditions: for Average normalized volume (oxidation level): UV-A + Ectoine 0.2%, UV-A 365 nm, 480J/cm2, 40 min
Procedure: To assess and quantify protein oxidation (carbonylation) by differential in-gel electrophoresis proteomics approach evidencing differentially oxidized protein spots upon UV-A (365 nm) irradiation on skin explants in the presence or absence of ectoine (0,2%) (source Merck KGaA, Darmstadt, Germany).
During the study human explants are irradiated under UVA (LED source; sources and chamber manufactured for custom needs by UWAVE;France, peak at 365nm at a 480J/cm2 dose during 40 min). A solution of N-acetylcysteine (Reference A7250, Sigma-Aldrich) is used as positive control of protection. Just after irradiation, explants are snap-frozen and proteins extracted for analyses.
Protein extraction from explants is performed using a commercial kit (Total Protein Extraction Kit, Merck KGaA) protocol for skin explants. Extracted proteins are quantified by the Bradford method and split into equal amounts for analyses. The samples are analyzed for carbonylated proteins after they are labeled with fluorescent probes functionalized to selectively react with carbonyl groups. The fluorescent labeling of carbonyls is obtained by the reaction with amine-N-oxyl functionalized fluorophore (custom synthetized) and formation of a stable covalent bond.
Thus, the samples are labeled with two different fluorescent dyes characterized by different excitation and emission wavelength peaks: CF®555 (Source :Biotium) is a red fluorescent dye spectrally similar to Cy3® and Alexa Fluor® 555 (λex547nm/λem572nm) and CF®647 (Source: Biotium) CF®647is a far-red fluorescent dye spectrally similar to Cy®5 and Alexa Fluor® 647 (λex639nm/λem668nm). This approach allows to load two distinct labeled samples in the same bi-dimensional electrophoresis gel and to analyze them independently.
Moreover, 50 µg of proteins of each sample are pooled and labeled a third fluorescent probe CF®488 (Source: Biotium) (λex483nm/λem508nm). CF®488 is a green fluorescent dye spectrally similar to Alexa Fluor® 488. CF®488 is and used as Internal Standard (IS) for inter-gel normalization. After specific fluorescent labeling, carbonylated proteins are separated by bi-dimensional electrophoresis and the fluorescence images are obtained for each specifically labeled sample.
The first dimension of protein separation (isoelectric focusing) is performed using gel-strips with nonlinear pH 3 to 11 while the second step of electrophoresis separation is conducted by SDS-PAGE using 4%-20% w/v gradient polyacrylamide gels. The digital acquisition of gel images is performed by using the «Ettan DIGE imager» system (GE Healthcare). Data treatment is performed with the software «Progenesis SameSpots» (Nonlinear Dynamics, UK).
Carbonylated proteins are presented as superposed images of two independent fluorescent signals (in green or red) and the coincident proteins with equivalent intensity result in yellow spots by superposition of the two dye colors used for their labeling (superposition of green and red colors). The carbonylated proteins that are present in a different level in the two samples on gel are visualized as red or green spots depending by the experimental group as independent labeling of each sample.
More than 200 spots are detected per sample, with an increase in number and intensity in the samples of the irradiated group (UV-A). These spots are localized between 37 kDa and 75 kDa. The fluorescence signal of each spot is normalized over the internal standard spot signal for each gel. The alignment of spots from different gels and the analysis of variance of their carbonylation levels in different samples and in different groups are performed by using the software Progenesis Samespots.

[2] = test system: Filaggrin; test: Fluorescence imaging (immunostaining) of protein expression on skin explants ex vivo; conditions: ectoine 0.2% w/v, 24 hours prior to UV-A irradiation (365 nm, 480J/cm^2, 40 minutes); Figure 2
Procedure: (§1) To evidence changes at the expression level of a selected pool of proteins on skin explants (ex vivo), treated or not with ectoine 0.2% (source Merck KGaA. Darmstadt, Germany) and exposed or not to UV-A irradiation: At day 0 (D0), the skin explants from a donor (phototype III, ref. EXP001100F022) are kept alive in calcium-free DMEM (Dulbecco's modified Eagle medium), with 10% FCS (Fetal calf serum), at 37°C and humid atmosphere, supplemented with 5% CO2. On day 1 (D1), ectoine 0.2% w/v) is obtained by dilution in H2O. The experimental groups are incubated for 24 hours with the active prior to irradiation.
(§2) On day 2 (D2), a stress induced by irradiation with UV-A (LED source, peak at 365 nm at a 480J/cm^2 during 40 minutes) is applied to the explants.
(§3) Skin explants are previously treated or not with ectoine and irradiated or not with UV-A, cryo-preserved in OCT (an embedding resin (Shandon Cryomatrix; Thermo Scientific, Reference 6769006)), flash-frozen in isopetan/liquid nitrogen and stored at -80 °C.
(§4) Tissue sections of 5 µm are cut by using a cryotome, air-dried at room temperature (RT) for 15 minutes and fixed with a mix of 95% ethanol/5% acetic acid for 5 minutes. Fixed tissues are then saturated with 5% BSA (bovine serum albumin) in PBS (Phosphate Buffered Saline; 1X, pH 7.4) at RT. […]

[3] = test system: LAMP2A; test: as above; conditions: ectoine 0.2% w/v; basal conditions (without UV-A); Figure 3
Procedure: as §1, §2, §3, §4

For `CC1=N[C@H](C(=O)O)CCN1` [Ectoine, (S)-1,4,5,6-tetrahydro-2-methyl-4-pyrimidincarboxylic acid], the “Average normalized volume (oxidation level)” value (“Average normalized volume” for short) ([1]; Spot 100 (protein not identified), n=4) was “→ 1.129”, the “Average normalized volume” value ([1]; Spot 203 (protein not identified), n=4) was “→ 1.062” and the “Average normalized volume” value ([1]; Spot 230 (protein not identified), n=4) was “→ 1.433”. The “level of oxidation of protein spots in the absence of irradiation” value ([1]; basal conditions, no UV-A, spots different from those protected from UV-A stress (except spot 100)) was “decreases the level of oxidation of ten protein spots”, the “protein carbonylation after ectoine treatment, spots 100, 230, 203” value ([1]; ectoine 0.2%, UV-A irradiation, n=4) was “carbonylation is not reduced” and the “protection of protein spots from UV-A induced oxidation (carbonylation)” value ([1]; ectoine 0.2%, of 8 spots increased by UV-A, spots 186, 133, 184, 185, 206, n=4) was “five spots are detected as protected and 5 proteins exhibit reduced protein carbonylation and prevents protein carbonylation significantly”. The Filaggrin expression level [2] was “prevents this decrease of Filaggrin” and the LAMP2A expression [3] was “increases LAMP2A expression”.
